Measured values as given in the NIST ThermoML archive (doi:10.1016/j.fluid.2013.01.022).
Numbers after ± are expanded uncertainties.

How the values were obtained:
[1] = refractive index (Na D-line) (dimensionless); conditions: 298.15 K; 101.33 kPa; Liquid; Standard Abbe refractometry
[2] = 298.15 K; 101.33 kPa; Liquid; Vibrating tube method
[3] = refractive index (Na D-line) (dimensionless); xn = mol fraction of the nth substance listed; conditions: 298.15 K, 101 kPa, Liquid, Standard Abbe refractometry
[4] = xn = mol fraction of the nth substance listed; conditions: 298.15 K, 101 kPa, Liquid, Vibrating tube method

CC(CC(C)(C)C)CP(=O)([O-])CC(C)CC(C)(C)C.CCCCCCCCCCCCCC[P+](CCCCCC)(CCCCCC)CCCCCC
Conditions | mass density [kg/m3] | refractive index
[1] | – | 1.47125 ± 0.00039
[2] | 886.43 ± 0.24 | –

CC(CC(C)(C)C)CP(=O)([O-])CC(C)CC(C)(C)C.CCCCCCCCCCCCCC[P+](CCCCCC)(CCCCCC)CCCCCC + CCO
Conditions | mass density, [4] [kg/m3] | refractive index, [3]
x2 = 0.051 | 886.25 ± 0.22 | 1.47094 ± 0.00041
x2 = 0.1022 | 886.05 ± 0.21 | 1.47076 ± 0.00041
x2 = 0.2136 | 885.54 ± 0.18 | 1.46988 ± 0.0004
x2 = 0.305 | 885 ± 0.16 | 1.46895 ± 0.00039
x2 = 0.4024 | 884.17 ± 0.15 | 1.46802 ± 0.00039
x2 = 0.5019 | 882.93 ± 0.13 | 1.46563 ± 0.00038
x2 = 0.5976 | 881.05 ± 0.12 | 1.46367 ± 0.00038
x2 = 0.6989 | 877.74 ± 0.12 | 1.459 ± 0.00037
x2 = 0.7998 | 871 ± 0.14 | 1.45104 ± 0.00037
x2 = 0.9003 | 854.34 ± 0.19 | 1.44331 ± 0.00037
x2 = 0.9499 | 840.31 ± 0.25 | 1.43816 ± 0.00037

CC(CC(C)(C)C)CP(=O)([O-])CC(C)CC(C)(C)C.CCCCCCCCCCCCCC[P+](CCCCCC)(CCCCCC)CCCCCC + CCOC(C)(C)C
Conditions | mass density, [4] [kg/m3] | refractive index, [3]
x2 = 0.0425 | 886 ± 0.22 | 1.4696 ± 0.0004
x2 = 0.0954 | 885.1 ± 0.21 | 1.4691 ± 0.0004
x2 = 0.2026 | 882.46 ± 0.19 | 1.4673 ± 0.0004
x2 = 0.2904 | 879.48 ± 0.17 | 1.4653 ± 0.0004
x2 = 0.4013 | 874.66 ± 0.15 | 1.4623 ± 0.0004
x2 = 0.4971 | 869.23 ± 0.14 | 1.4587 ± 0.0004
x2 = 0.6023 | 861.11 ± 0.14 | 1.4539 ± 0.0004
x2 = 0.7002 | 850.33 ± 0.16 | 1.4464 ± 0.0004
x2 = 0.7999 | 832.96 ± 0.22 | 1.435 ± 0.0004
x2 = 0.8998 | 802.31 ± 0.32 | 1.4225 ± 0.0004
x2 = 0.9503 | 776.41 ± 0.43 | 1.4154 ± 0.0004

CCOC(C)(C)C [2-ethoxy-2-methylpropane]
Conditions | mass density [kg/m3] | refractive index
[1] | – | 1.37358 ± 0.00033
[2] | 735.85 ± 0.14 | –

CCO [ethanol]
Conditions | mass density [kg/m3] | refractive index
[1] | – | 1.35925 ± 0.00033
[2] | 785.22 ± 0.12 | –

CCCCCCCCCCCCCC[P+](CCCCCC)(CCCCCC)CCCCCC.[Cl-] [trihexyl(tetradecyl)phosphonium chloride]
Conditions | mass density [kg/m3] | refractive index
[1] | – | 1.48175 ± 0.00039
[2] | 891.82 ± 0.24 | –

CCCCCCCCCCCCCC[P+](CCCCCC)(CCCCCC)CCCCCC.[Cl-] [trihexyl(tetradecyl)phosphonium chloride] + CCOC(C)(C)C
Conditions | mass density, [4] [kg/m3] | refractive index, [3]
x2 = 0.0473 | 890.24 ± 0.22 | 1.4804 ± 0.0004
x2 = 0.1037 | 888.11 ± 0.21 | 1.4788 ± 0.0004
x2 = 0.1961 | 884.09 ± 0.19 | 1.4762 ± 0.0004
x2 = 0.3076 | 878.3 ± 0.17 | 1.4727 ± 0.0004
x2 = 0.3968 | 872.72 ± 0.16 | 1.4688 ± 0.0004
x2 = 0.5075 | 864.28 ± 0.15 | 1.4624 ± 0.0004
x2 = 0.5981 | 855.37 ± 0.16 | 1.4562 ± 0.0004
x2 = 0.6992 | 841.62 ± 0.18 | 1.4463 ± 0.0004
x2 = 0.7993 | 821.34 ± 0.24 | 1.432 ± 0.0004
x2 = 0.8987 | 790.03 ± 0.31 | 1.4104 ± 0.0004
x2 = 0.9496 | 767.05 ± 0.38 | 1.3943 ± 0.0004
